Source: paper PMC10492809, “A Bischler-Napieralski and homo-Mannich sequence enables diversified syntheses of sarpagine alkaloids and analogues” (Nature Communications, 2023)
Several values for one entry are separate records, joined by “and”; a condition that tells them apart may be missing. Equal values may be shown once. Read-outs that look alike come from different tables or passages of the source.

Assays:
Type in all cases: cell-based
[1] = test system: CT26; assay: MTT cell viability assay, CT26
Protocol: (§1) All cell lines were cultured at 37 °C with 5% CO2 in a humidified incubator. HeLa cells were grown in MEM (Gibco) supplemented with 10% fetal bovine serum (FBS, Hyclone) and 1% penicillin/streptomycin (Gibco). MIA PaCa-2, MDA-MB-231, A549, MCF-7, A375 and BEAS-2B cells were grown in DMEM (Gibco) supplemented with 10% FBS and 1% penicillin/streptomycin. CT26, and HCT116 cells were grown in RPMI-1640 supplemented with 10% FBS and 1% penicillin/streptomycin. All cell lines were purchased from the National Collection of Authenticated Cell Cultures (China).
(§2) The antiproliferative activities of the prepared compounds against tested cell lines were evaluated using a standard (MTT)-based colorimetric assay. Cells were plated at a density of 3000 cells/well in 96-well plates and allowed to adhere overnight. Then cells were treated with varying concentrations of synthesized compounds for 72 h. At the end of treatment, 20 μL of thiazolyl blue tetrazolium bromide (MTT) solution (5 mg/mL) was added to each well. Cells were incubated for an additional 4 h at 37 °C and then the medium was removed and replaced with 200 μL of DMSO. The absorbance (OD490) was read on a microplate reader (SpectraMax i3x, Molecular Devices, US). In all experiments, three replicate wells were used for each drug concentration. Each assay was performed at least three times. The IC50 values were calculated by GraphPad Prism 9, which were the mean values derived from three independent experiments.

[2] = test system: A549; assay: MTT cell viability assay, A549
Protocol: as §1, §2

[3] = test system: A375; assay: MTT cell viability assay, A375
Protocol: as §1, §2

[4] = test system: cancer cell lines; assay: In vitro cancer cell assays (antiproliferation, cell line not given); conditions: result in words
Protocol: as §1, §2

[5] = MTT cytotoxicity towards normal cells, BEAS-2B; conditions: human
Protocol: as §1, §2

[6] = test system: MDA-MB-231; assay: MTT cell viability assay, MDA-MB-231
Protocol: as §1, §2

[7] = test system: Hela; assay: MTT cell viability assay, Hela
Protocol: as §1, §2

[8] = test system: HCT 116; assay: MTT cell viability assay, HCT 116
Protocol: as §1, §2

[9] = test system: MCF-7; assay: MTT cell viability assay, MCF-7
Protocol: as §1, §2

[10] = test system: MIA PaCa-2; assay: MTT cell viability assay, MIA PaCa-2
Protocol: as §1, §2

[11] = test system: MDA-MB-231 cells; assay: Cell death manner assay (MTT, co-incubation with cell death inhibitors); conditions: Fer-1 / NAC experiment; 15ai 10 μM, Fer-1 10 μM, NAC 5 mM, 72 h; single replicates
Protocol: [The source words this procedure for another cell line and reports this cell line under the same test.] To investigate the mechanism of 15ai in cancer cell proliferation inhibition, the manners of cell death were analyzed. The cell apoptosis inhibitor Z-VAD-FMK (Z-VAD), cell necrosis inhibitor Necrostatin-1 (Necro-1), ferroptosis inhibitor Ferrostatin-1 (Fer-1), and ROS inhibitor N-acetylcysteine (NAC) were purchased and stored at −20 °C. A375 cells were seeded with a density of 5000 cells/100 µL/well into 96 well plates. After 12 h, 15ai was added at different concentrations. Following that 10 µM Z-VAD, 10 µM Nerco-1, 10 µM Fer-1, and 5 mM NAC were added and co-incubated with 15ai, respectively, for 72 h. Then, 20 µL MTT solution (5 mg/mL) was added and incubated at 37 °C for an additional 4 h. Then, the supernatant was discarded, and 200 μL DMSO was added to dissolve the precipitate. After 15 min, the absorbance (OD490) was read on a microplate reader (SpectraMax i3x, Austria). In all experiments, three replicate wells were used for each drug concentration. Each assay was performed at least three times.

CC=C1CN2C3CC1C(C=O)C2Cc1c3[nH]c2ccccc12 (stereo not shown) [vellosimine (4), vellosimine]
IC50 ([1]; Mus musculus, CT26, 72 h, MTT, 72 h, mean of at least three independent experiments, read-out: IC50 CT26): 20.2 µM | IC50 ([1]; Mus musculus, CT26, source data sheet, single values of three experiments, read-out: MTT IC50 CT-26): 18.9 µM | IC50 ([1]; source data sheet, single values of three experiments, read-out: MTT IC50 CT-26): 23.2 µM and 18.5 µM | IC50 ([2]; Homo sapiens, A549, 72 h, MTT, 72 h, mean of at least three independent experiments, read-out: IC50 A549): 23.2 µM | IC50 ([2]; Homo sapiens, A549, source data sheet, single values of three experiments, read-out: MTT IC50 A549): 22.2 µM | IC50 ([2]; source data sheet, single values of three experiments, read-out: MTT IC50 A549): 26.1 µM and 21.4 µM | IC50 ([3]; Homo sapiens, A-375, 72 h, MTT, 72 h, mean of at least three independent experiments, read-out: IC50 A375): 28.6 µM | IC50 ([3]; Homo sapiens, A-375, source data sheet, single values of three experiments, read-out: MTT IC50 A375): 32.1 µM | IC50 ([3]; source data sheet, single values of three experiments, read-out: MTT IC50 A375): 26.2 µM and 27.5 µM | antiproliferation activity in the in vitro cancer cell assays [4]: moderate antiproliferation activity | IC50 at 72 h ([5]; BEAS-2B lung epithelial cells (normal cells), source data sheet, single values of three experiments): > 100 µM | CC50 at 72 h ([5]; BEAS-2B lung epithelial cells, MTT, 72 h, cytotoxicity towards normal cells, mean of at least three independent experiments): > 100 µM | IC50 ([6]; Homo sapiens, MDA-MB-231, 72 h, MTT, 72 h, mean of at least three independent experiments, read-out: IC50 MDA-MB-231): 21.2 µM | IC50 ([6]; Homo sapiens, MDA-MB-231, source data sheet, single values of three experiments, read-out: MTT IC50 MDA-MB-231): 23 µM | IC50 ([6]; source data sheet, single values of three experiments, read-out: MTT IC50 MDA-MB-231): 18.2 µM and 22.2 µM | IC50 ([7]; Homo sapiens, HeLa, 72 h, MTT, 72 h, mean of at least three independent experiments, read-out: IC50 Hela): 24.1 µM | IC50 ([7]; Homo sapiens, HeLa, source data sheet, single values of three experiments, read-out: MTT IC50 Hela): 27.5 µM | IC50 ([7]; source data sheet, single values of three experiments, read-out: MTT IC50 Hela): 22.6 µM and 22.2 µM | IC50 ([8]; Homo sapiens, HCT-116, 72 h, MTT, 72 h, mean of at least three independent experiments, read-out: IC50 HCT 116): 27.5 µM | IC50 ([8]; Homo sapiens, HCT-116, source data sheet, single values of three experiments, read-out: MTT IC50 HCT-116): 29.6 µM | IC50 ([8]; source data sheet, single values of three experiments, read-out: MTT IC50 HCT-116): 25.2 µM and 27.8 µM | IC50 ([9]; Homo sapiens, MCF7, 72 h, MTT, 72 h, mean of at least three independent experiments, read-out: IC50 MCF-7): 39.2 µM | IC50 ([9]; Homo sapiens, MCF7, source data sheet, single values of three experiments, read-out: MTT IC50 MCF-7): 38.9 µM | IC50 ([9]; source data sheet, single values of three experiments, read-out: MTT IC50 MCF-7): 42.7 µM and 36 µM | IC50 ([10]; Homo sapiens, MIA PaCa-2, 72 h, MTT, 72 h, mean of at least three independent experiments, read-out: IC50 MIA PaCa-2): 32.6 µM | IC50 ([10]; Homo sapiens, MIA PaCa-2, source data sheet, single values of three experiments, read-out: MTT IC50 MIA PaCa-2): 35.9 µM | IC50 ([10]; source data sheet, single values of three experiments, read-out: MTT IC50 MIA PaCa-2): 29.6 µM and 32.2 µM

CC(=O)N[C@@H](CS)C(=O)O [NAC, N-acetylcysteine, reference compound]
Percentage of viability [11]: 108.212% and 96.8182% and 102.046%
